The subject of data set [1] is proteases that are active at PH5.0. As to the kind of experiment: Protease inhibitors preventing EPO degradation at pH5.0 in 10X concentrated EPO medium, assayed by RIA. Type of data set: biochemical. How it is done: (§1) The addition of a dye column to step 1 gives some additional purification and, more importantly, removes contaminating proteases from EPO and consequently allows higher EPO recoveries at the S-Sepharose Fast Flow step. The clarified media was loaded on a Blue Trisacryl-M column (Pharmacia) equilibrated with 10 mM NaPO4 pH6.0, 150 mM NaCl and eluted with a linear salt gradient of 0.15 to 2.5 M NaCl in 10 mM NaPO4 pH6.0 and then flow-dialyzed into 50 mM Na Acetate, pH5.0 containing 15mM NaCl. The recovery of EPO from the Blue Trisacryl column was almost complete and the recovery on the following S-Sepharose Fast Flow column was 86% compared to 60% in example 1. […] This degradation seems to be caused by proteases that are active at PH5.0. The improved yields in step 2 as illustrated in this example can be attributed to the separation of proteases from the EPO protein by the Blue Trisacryl column. (Other commercially available dyes can also be used.)
Protease inhibitors can also be added to the conditioned medium in order to improve EPO yields. Several commercially available protease inhibitors were tested to see if they could prevent EPO degradation at pH5.0. 10X concentrated (Step 1) EPO medium was diluted 1:10 in 50mM Na Acetate, pH5.0 and then incubated at 37° C. with or without protease inhibitors at a concentration of 5 micrograms/ml. […]

Data set [2] is described as follows: Degradation of EPO incubated at 37° C. under mildly acidic conditions at pH5.0. Type of data set: physicochemical. The settings on record: 10X concentrated medium or partially purified step 2 material. How it is done:
as §1

The next data set concerns Polycythemic mouse. Description: Polycythemic mouse assay (in vivo biological assay). The settings on record: for biological activity in in vivo assays: purified rEPO from CES9dog conditioned medium. How it is done: (§2) When the cells were confluent, the supernatants were assayed for EPO expression and the cells were counted and frozen. To test the reproducibility and stability of these cell lines, the 21 highest producing cell lines were thawed and rescreened for 24 hours expression levels on a per cell basis. The five highest producers (3CES and 2CEG transformants) were chosen and expanded into roller bottles to test for growth and production properties. Representative 24 hour culture fluids from cell lines CES9dog and CEG4d in T-75 flasks contained 600U/ml and 800U/ml of rEPO as measured by the ^3 H-thy uptake assay using human urinary EPO as a standard and 490 and 540U/ml when measured by the ^59 Fe incorporation assay into rat bone marrow cells in vitro (Goldwasser et al., 1975, Endocrinology 97:315.). These samples were also active in vivo in the Polycythemic mouse assay as described by Cotes et al., 1961, Nature 191:1065.

The next data set relates to rat bone marrow cells. As to the kind of experiment: In vitro biological assays (3H-thy uptake assay, 59Fe incorporation into rat bone marrow cells). The settings on record: purified rEPO from CES9dog conditioned medium. It is filed as cell-based. How it is done:
Foci, representing BPV transformed C127 cells, were detectable 10-14 days after transfection. Supernatants from Plates containing transformants were assayed 17 days after transfection by the ^3 H-thy uptake assay (Krystal 1983, Exp. Hematol., 11/7, 649) and found to contain EPO. 21/2 to 3 weeks after transfection, foci were isolated by the cloning ring method and transferred to T-25 flasks. After the cells reached approximately 20% confluency, the supernatants were tested for EPO production by the ^3 H-thy uptake assay. A total of 76 cell lines (15 CEM, 35 CES and 26 CEG transformants) were transferred into T-75 flasks.
as §2, with “The five highest producers (3CES and 2CEG transformants) were chosen and expanded into roller bottles to test for growth and production properties.” left out, “These samples were also active in vivo in the Polycythemic mouse assay as described by Cotes et al., 1961, Nature 191:1065.” left out

Square brackets hold non-standard residues; d marks the D form. Peptide text beside a SMILES is read from it. * marks the point of attachment. Sta = CC(C)C[C@H](N)[C@@H](O)CC(=O)O; Isovaleryl = CC(C)CC(=O)*

Turning to `CC(C)CC(=O)N[C@H](C(=O)N[C@H](C(=O)N[C@@H](CC(C)C)[C@@H](O)CC(=O)N[C@@H](C)C(=O)N[C@@H](CC(C)C)[C@@H](O)CC(=O)O)C(C)C)C(C)C` [Pepstatin, pepstatin] (Isovaleryl-VV[Sta]A[Sta]-OH), in data set [1] (5 micrograms/ml, 50mM Na Acetate pH5.0, 37° C., over 29 hours, RIA), the “effect on EPO immunoactivity at pH5.0” value is on record as “significant stabilizing effect”. Also, the “IC50 (the concentration at which 50% of the proteases are inhibited)” value in data set [1] (10X concentrated medium, pH5.0, 37° C., 25 hours, RIA (FIG. 9)) is recorded as “approximately 0.02 ug/ml”.
In the case of “rEPO: recombinant human erythropoietin produced by BPV transformed mouse C127 cells, N- and O-glycosylated”, the t1/2 of degradation entry in data set [2] is “approx. 4 h”. In addition, the “activity in vivo in the Polycythemic mouse assay” value in the data set on Polycythemic mouse (24 hour culture fluids from cell lines CES9dog and CEG4d) is “active”. Moreover, the “biological activity in in vivo assays” value in the data set with Polycythemic mouse is reported as “high biological activity”; with Polycythemic mouse (listed as EPO) it was “high potency”. Moreover, the entries for the “biological activity in in vitro assays” value in the data set with rat bone marrow cells and with rat bone marrow cells (listed as EPO) were “high biological activity” and “high potency”, respectively.

Source of the values: patent US4954437A, “Cell encoding recombinant human erythropoietin” (Integrated Genetics, Inc., priority 1986, dated 1990).
